Assay results from publication PMC7522982, “PKIS deep dive yields a chemical starting point for dark kinases and a cell active BRSK2 inhibitor” (Scientific Reports, 2020).

How the values were obtained:
[1] = target: RPS6KA6/RSK4 (Homo sapiens, UniProt Q9UK32); assay: DiscoverX scanMAX competition binding assay; set-up: purchased Eurofins DiscoverX (scanMAX) / Eurofins enzymatic assays
Excerpt: (§1) Based on its narrow profile when tested in the combined Nanosyn and TSA panels, GW296115 was included in the recently released Kinase Chemogenomic Set (KCGS)[15]. All of the data presented in the Introduction section was collected prior to the inclusion of GW296115 in KCGS and everything that follows has been subsequently generated. Since its inclusion in PKIS and more recently KCGS, we have carried out a broader round of screening at DiscoverX. This profiling data has not been previously released and is reported here for the first time. GW296115 was profiled against 403 wild type human kinases at 1 μM using the DiscoverX scanMAX screening platform, which employs an active site-directed competition binding assay to quantitatively measure interactions between test compounds and kinases, [16]. GW296115 inhibited 25 kinases > 90% at 1 μM, resulting in a selectivity index (S10) of 0.062 at 1 μM (Table S2, Fig. 1C)[17].
(§2) The scanMAX assays were performed at Eurofins DiscoverX Corporation as previously described.

[2] = target: AURKC (Homo sapiens, UniProt Q9UQB9); assay: DiscoverX scanMAX competition binding assay; set-up: purchased Eurofins DiscoverX (scanMAX) / Eurofins enzymatic assays
Excerpt: as §1, §2

[3] = target: AURKB (Homo sapiens, UniProt Q96GD4); assay: DiscoverX scanMAX competition binding assay; set-up: purchased Eurofins DiscoverX (scanMAX) / Eurofins enzymatic assays
Excerpt: as §1, §2

[4] = target: PRKG2/PKG2 (Homo sapiens, UniProt Q13237); assay: DiscoverX scanMAX competition binding assay; set-up: purchased Eurofins DiscoverX (scanMAX) / Eurofins enzymatic assays
Excerpt: as §1, §2

[5] = target: PIM3 (Homo sapiens, UniProt Q86V86); assay: DiscoverX scanMAX competition binding assay; set-up: purchased Eurofins DiscoverX (scanMAX) / Eurofins enzymatic assays
Excerpt: as §1, §2

[6] = target: MAP3K9/MLK1 (Homo sapiens, UniProt P80192); assay: DiscoverX scanMAX competition binding assay; set-up: purchased Eurofins DiscoverX (scanMAX) / Eurofins enzymatic assays
Excerpt: as §1, §2

[7] = target: DAPK3/ZIPK (Homo sapiens, UniProt O43293); assay: DiscoverX scanMAX competition binding assay; set-up: purchased Eurofins DiscoverX (scanMAX) / Eurofins enzymatic assays
Sequence of DAPK3/ZIPK (O43293 whole entry): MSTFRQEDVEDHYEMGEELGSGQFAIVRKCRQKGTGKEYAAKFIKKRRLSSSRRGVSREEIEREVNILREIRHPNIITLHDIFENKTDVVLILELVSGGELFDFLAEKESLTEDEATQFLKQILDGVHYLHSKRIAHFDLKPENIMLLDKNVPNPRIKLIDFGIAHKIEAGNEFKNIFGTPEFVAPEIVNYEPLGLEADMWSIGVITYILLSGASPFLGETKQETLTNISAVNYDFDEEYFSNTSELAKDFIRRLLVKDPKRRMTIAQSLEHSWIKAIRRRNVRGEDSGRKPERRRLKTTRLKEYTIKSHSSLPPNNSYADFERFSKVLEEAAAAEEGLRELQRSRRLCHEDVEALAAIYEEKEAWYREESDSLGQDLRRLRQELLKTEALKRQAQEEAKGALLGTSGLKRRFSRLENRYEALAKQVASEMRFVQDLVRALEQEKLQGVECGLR
Excerpt: as §1, §2

[8] = target: T1, STK17B/DRAK2 (Homo sapiens, UniProt O94768); assay: DiscoverX scanMAX competition binding assay; set-up: purchased Eurofins DiscoverX (scanMAX) / Eurofins enzymatic assays
T1 sequence (O94768 1-372): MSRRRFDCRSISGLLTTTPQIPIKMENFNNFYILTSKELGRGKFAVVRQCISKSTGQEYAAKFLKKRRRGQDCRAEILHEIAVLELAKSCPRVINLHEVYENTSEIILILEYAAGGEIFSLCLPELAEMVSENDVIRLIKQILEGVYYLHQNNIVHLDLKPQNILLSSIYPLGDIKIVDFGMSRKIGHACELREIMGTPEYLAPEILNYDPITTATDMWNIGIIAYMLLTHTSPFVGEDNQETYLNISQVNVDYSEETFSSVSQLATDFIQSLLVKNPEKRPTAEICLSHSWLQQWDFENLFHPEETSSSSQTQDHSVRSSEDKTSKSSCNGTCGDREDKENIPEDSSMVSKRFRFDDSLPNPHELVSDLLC
Excerpt: as §1, §2

[9] = target: SGK1/SGK (Homo sapiens, UniProt O00141); assay: DiscoverX scanMAX competition binding assay; set-up: purchased Eurofins DiscoverX (scanMAX) / Eurofins enzymatic assays
Excerpt: as §1, §2

[10] = target: MYLK/MLCK/smMLCK (Homo sapiens, UniProt Q15746); assay: DiscoverX scanMAX competition binding assay; set-up: purchased Eurofins DiscoverX (scanMAX) / Eurofins enzymatic assays
Excerpt: as §1, §2

[11] = target: MAP3K11/MLK3 (Homo sapiens, UniProt Q16584); assay: DiscoverX scanMAX competition binding assay; set-up: purchased Eurofins DiscoverX (scanMAX) / Eurofins enzymatic assays
Sequence of MAP3K11/MLK3 (Q16584 whole entry): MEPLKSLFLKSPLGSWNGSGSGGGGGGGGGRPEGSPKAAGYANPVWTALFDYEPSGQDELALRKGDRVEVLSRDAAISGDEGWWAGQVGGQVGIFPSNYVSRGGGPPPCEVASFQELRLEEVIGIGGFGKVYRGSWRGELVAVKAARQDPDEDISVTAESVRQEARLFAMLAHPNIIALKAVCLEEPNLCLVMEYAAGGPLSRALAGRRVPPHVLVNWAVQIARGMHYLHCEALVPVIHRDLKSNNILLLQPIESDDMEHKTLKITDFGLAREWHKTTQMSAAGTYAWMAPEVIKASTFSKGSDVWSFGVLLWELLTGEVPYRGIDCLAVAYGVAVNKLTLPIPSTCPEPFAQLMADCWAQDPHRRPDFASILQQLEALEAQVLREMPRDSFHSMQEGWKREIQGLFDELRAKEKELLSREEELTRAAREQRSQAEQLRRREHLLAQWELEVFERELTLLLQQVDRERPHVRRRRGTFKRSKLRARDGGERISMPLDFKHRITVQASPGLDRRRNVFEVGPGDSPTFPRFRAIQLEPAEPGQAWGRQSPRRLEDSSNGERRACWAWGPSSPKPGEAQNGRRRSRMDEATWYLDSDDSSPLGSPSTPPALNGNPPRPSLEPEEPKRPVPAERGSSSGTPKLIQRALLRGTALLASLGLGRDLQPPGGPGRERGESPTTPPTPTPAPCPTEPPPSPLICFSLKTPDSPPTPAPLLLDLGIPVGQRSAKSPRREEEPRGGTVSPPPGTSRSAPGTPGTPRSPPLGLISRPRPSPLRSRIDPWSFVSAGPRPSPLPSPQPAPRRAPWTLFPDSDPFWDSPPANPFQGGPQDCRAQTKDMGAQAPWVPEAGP
Excerpt: as §1, §2

[12] = target: MAP4K4/HGK (Homo sapiens, UniProt O95819); assay: DiscoverX scanMAX competition binding assay; set-up: purchased Eurofins DiscoverX (scanMAX) / Eurofins enzymatic assays
Excerpt: as §1, §2

[13] = target: STK33 (Homo sapiens, UniProt Q9BYT3); assay: DiscoverX scanMAX competition binding assay; set-up: purchased Eurofins DiscoverX (scanMAX) / Eurofins enzymatic assays
Sequence of STK33 (Q9BYT3 whole entry): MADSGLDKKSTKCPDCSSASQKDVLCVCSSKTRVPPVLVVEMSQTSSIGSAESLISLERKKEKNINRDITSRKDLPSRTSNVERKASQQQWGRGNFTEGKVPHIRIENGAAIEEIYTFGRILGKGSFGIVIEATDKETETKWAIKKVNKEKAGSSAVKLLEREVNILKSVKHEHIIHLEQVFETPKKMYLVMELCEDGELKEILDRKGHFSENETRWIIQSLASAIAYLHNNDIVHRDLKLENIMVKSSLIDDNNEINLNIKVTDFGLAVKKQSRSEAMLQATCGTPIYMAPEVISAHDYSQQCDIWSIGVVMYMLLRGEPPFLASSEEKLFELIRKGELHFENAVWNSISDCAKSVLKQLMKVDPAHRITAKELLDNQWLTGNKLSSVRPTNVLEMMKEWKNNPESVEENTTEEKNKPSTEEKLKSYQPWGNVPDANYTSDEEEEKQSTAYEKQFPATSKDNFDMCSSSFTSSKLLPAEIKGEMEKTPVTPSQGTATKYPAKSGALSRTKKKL
Excerpt: as §1, §2

[14] = target: MINK1/MINK (Homo sapiens, UniProt Q8N4C8); assay: DiscoverX scanMAX competition binding assay; set-up: purchased Eurofins DiscoverX (scanMAX) / Eurofins enzymatic assays
Excerpt: as §1, §2

[15] = test system: cytoplasmic domain of PDGFR; set-up: method as in PMID 10048786; conditions: in vitro; read-out: IC50, autophosphorylation of the cytoplasmic domain of PDGFR in vitro; cited from earlier work
[16] = test system: PDGFRα; set-up: method as in PMID 26501955; conditions: cited from earlier work
[17] = test system: GAK; set-up: method as in earlier work; conditions: cited from earlier work
[18] = target: T2, EPHB6 (Homo sapiens, UniProt O15197); assay: DiscoverX scanMAX competition binding assay
T2 construct: purchased Eurofins DiscoverX Corporation
Excerpt: as §1, §2

[19] = target: T3, MYLK3/caMLCK (Homo sapiens, UniProt Q32MK0); assay: DiscoverX scanMAX competition binding assay
T3 construct: purchased Eurofins DiscoverX Corporation
T3 sequence (Q32MK0 whole entry): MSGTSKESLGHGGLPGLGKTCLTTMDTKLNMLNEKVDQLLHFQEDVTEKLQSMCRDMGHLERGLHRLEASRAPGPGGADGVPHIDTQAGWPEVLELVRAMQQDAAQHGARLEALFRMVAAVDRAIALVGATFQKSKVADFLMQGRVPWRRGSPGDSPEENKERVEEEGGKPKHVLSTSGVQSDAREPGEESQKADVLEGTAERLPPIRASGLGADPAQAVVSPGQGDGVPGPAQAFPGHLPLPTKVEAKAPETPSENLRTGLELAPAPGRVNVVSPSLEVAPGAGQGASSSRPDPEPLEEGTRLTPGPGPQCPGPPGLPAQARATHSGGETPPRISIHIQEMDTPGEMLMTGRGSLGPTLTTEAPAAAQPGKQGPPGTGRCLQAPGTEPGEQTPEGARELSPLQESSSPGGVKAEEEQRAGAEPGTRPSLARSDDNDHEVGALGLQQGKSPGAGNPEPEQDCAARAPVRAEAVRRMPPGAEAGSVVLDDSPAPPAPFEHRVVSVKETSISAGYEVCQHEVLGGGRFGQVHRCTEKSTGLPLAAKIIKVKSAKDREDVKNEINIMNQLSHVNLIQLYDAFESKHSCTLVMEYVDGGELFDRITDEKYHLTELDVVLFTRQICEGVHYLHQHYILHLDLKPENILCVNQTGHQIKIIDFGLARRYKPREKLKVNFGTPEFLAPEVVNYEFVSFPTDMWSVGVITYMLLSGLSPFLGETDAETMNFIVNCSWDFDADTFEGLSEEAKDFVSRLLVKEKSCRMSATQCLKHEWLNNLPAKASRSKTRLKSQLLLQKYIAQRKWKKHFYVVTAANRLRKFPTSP
Excerpt: as §1, §2

[20] = target: T4, RIOK3 (Homo sapiens, UniProt O14730); assay: DiscoverX scanMAX competition binding assay
T4 construct: purchased Eurofins DiscoverX (scanMAX) / Eurofins enzymatic assays
T4 sequence (O14730 whole entry): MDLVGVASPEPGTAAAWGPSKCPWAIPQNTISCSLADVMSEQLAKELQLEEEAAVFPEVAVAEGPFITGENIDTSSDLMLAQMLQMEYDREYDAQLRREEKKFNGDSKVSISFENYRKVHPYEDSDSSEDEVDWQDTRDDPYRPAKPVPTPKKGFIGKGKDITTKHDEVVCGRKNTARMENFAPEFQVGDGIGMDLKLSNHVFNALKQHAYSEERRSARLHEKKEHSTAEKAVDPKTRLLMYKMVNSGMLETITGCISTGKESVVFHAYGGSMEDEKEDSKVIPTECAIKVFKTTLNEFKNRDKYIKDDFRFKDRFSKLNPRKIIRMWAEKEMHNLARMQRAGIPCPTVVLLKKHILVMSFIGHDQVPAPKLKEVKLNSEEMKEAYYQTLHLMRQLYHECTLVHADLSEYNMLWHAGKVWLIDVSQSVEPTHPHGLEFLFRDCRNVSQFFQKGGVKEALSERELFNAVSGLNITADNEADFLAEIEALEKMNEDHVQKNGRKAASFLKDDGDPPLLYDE
Excerpt: as §1, §2

[21] = target: T5, MAP2K5 (Homo sapiens, UniProt Q13163); assay: DiscoverX scanMAX competition binding assay
T5 construct: purchased Eurofins DiscoverX (scanMAX) / Eurofins enzymatic assays
T5 sequence (Q13163 whole entry): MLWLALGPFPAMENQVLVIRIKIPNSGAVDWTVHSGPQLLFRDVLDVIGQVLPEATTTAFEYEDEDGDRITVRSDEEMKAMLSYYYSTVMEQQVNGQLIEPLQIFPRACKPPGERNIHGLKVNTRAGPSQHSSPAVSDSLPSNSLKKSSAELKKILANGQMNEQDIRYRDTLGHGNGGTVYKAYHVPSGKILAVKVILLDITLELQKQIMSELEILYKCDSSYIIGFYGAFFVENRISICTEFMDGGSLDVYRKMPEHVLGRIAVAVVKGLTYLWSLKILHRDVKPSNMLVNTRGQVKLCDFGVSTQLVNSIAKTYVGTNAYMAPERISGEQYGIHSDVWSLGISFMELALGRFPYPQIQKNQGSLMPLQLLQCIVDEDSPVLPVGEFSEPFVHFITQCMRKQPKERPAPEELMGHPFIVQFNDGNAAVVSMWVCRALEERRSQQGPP
Excerpt: as §1, §2

[22] = target: T6, MAP3K19 (Homo sapiens, UniProt Q56UN5); assay: DiscoverX scanMAX competition binding assay
T6 construct: purchased Eurofins DiscoverX (scanMAX) / Eurofins enzymatic assays
T6 sequence (Q56UN5 whole entry): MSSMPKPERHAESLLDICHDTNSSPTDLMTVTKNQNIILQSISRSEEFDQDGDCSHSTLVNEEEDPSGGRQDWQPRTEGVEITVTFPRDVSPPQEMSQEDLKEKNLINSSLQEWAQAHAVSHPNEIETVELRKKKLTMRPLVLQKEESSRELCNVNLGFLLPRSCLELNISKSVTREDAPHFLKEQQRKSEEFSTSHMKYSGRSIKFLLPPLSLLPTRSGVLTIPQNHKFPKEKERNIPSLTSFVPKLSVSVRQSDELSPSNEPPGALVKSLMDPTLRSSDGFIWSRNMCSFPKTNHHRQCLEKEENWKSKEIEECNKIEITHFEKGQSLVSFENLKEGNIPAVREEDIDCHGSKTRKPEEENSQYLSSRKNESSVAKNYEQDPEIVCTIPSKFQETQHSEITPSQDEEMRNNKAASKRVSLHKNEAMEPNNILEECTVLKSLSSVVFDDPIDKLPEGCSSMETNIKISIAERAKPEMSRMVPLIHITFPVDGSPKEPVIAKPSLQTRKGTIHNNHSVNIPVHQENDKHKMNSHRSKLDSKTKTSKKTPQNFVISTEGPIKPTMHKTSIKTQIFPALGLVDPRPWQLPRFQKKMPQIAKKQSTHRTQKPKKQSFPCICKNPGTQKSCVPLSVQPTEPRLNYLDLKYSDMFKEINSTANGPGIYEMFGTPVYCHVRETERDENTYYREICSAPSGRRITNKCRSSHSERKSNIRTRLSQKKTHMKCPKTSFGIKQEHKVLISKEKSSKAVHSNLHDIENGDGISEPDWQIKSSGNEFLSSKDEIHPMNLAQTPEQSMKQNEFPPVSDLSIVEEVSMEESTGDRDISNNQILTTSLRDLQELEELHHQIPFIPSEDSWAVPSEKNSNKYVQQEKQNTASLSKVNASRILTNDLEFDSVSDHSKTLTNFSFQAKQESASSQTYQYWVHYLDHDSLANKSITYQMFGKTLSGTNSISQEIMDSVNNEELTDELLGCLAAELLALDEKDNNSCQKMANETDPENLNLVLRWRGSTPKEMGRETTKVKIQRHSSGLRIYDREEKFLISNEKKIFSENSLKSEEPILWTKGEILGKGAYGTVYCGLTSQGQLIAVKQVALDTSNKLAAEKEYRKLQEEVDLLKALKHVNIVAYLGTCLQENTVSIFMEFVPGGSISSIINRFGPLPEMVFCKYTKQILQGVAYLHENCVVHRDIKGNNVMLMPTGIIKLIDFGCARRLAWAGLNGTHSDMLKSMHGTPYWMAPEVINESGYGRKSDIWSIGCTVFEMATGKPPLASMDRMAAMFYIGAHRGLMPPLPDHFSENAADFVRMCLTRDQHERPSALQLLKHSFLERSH
Excerpt: as §1, §2

[23] = target: T7, GAK (Homo sapiens, UniProt O14976); assay: DiscoverX scanMAX competition binding assay
T7 construct: purchased Eurofins DiscoverX (scanMAX) / Eurofins enzymatic assays
Excerpt: as §1, §2

## COc1ccc2[nH]c3c4[nH]c5ccc(OC)cc5c4c4c(c3c2c1)C(=O)NC4=O [GW296115]
[1]
  inhibition at 1 µM: 94.7%
[2]
  inhibition at 1 µM: 94.1%
[3]
  inhibition at 1 µM: 90%
[4]
  inhibition at 1 µM: 98.8%
[5]
  inhibition at 1 µM: 94.4%
[6]
  inhibition at 1 µM: 95.1%
[7]
  inhibition at 1 µM: 96.9%
[8]
  inhibition at 1 µM: 100%
[9]
  inhibition at 1 µM: 91.2%
[10]
  inhibition at 1 µM: 95.4%
[11]
  inhibition at 1 µM: 92.4%
[12]
  inhibition at 1 µM: 91.4%
[13]
  inhibition at 1 µM: 92%
[14]
  inhibition at 1 µM: 96%
[15]
  IC50: 1800 ± 120 nM
[16]
  Nanosyn % Inhibition at 1 μM: 84%
[17]
  TSA ΔTm at 10 μM (°C): 8.4 °C
[18]
  inhibition at 1 µM: 85%
[19]
  inhibition at 1 µM: 80%
[20]
  inhibition at 1 µM: 89%
[21]
  inhibition at 1 µM: 99.5%
[22]
  inhibition at 1 µM: 100%
[23]
  inhibition at 1 µM: 96.7%
